The term half-life denotes the time in which the quantity being followed falls by half.

From ChEMBL document CHEMBL3091282, “Synthesis and evaluation of stability of m3G-CAP analogues in serum-supplemented medium and cytosolic extract” (Bioorg Med Chem, 2013) come the findings set out here.

The nature of series [1]: Stability of the compound in DMEM assessed as compound remaining after 40 mins by RP-HPLC analysis in presence of fetal bovine serum. It is filed as physicochemical. To be noted: cattle, DMEM with fetal bovine serum; read-out: Stability.
Series [2] is described as follows: Half life in human HeLa cell cytosolic extract by RP-HPLC analysis. Type of series: ADME, cell-based, Cytosol.
A short description of series [3]: Half life in DMEM by RP-HPLC analysis in presence of fetal bovine serum. It is filed as ADME. To be noted: cattle, DMEM with fetal bovine serum.

Structures are written as SMILES.

Take `CO[C@@H]1[C@H](O)[C@@H](COP(=O)([O-])OP(=O)(O)CP(=O)(O)OC[C@H]2O[C@@H](n3c[n+](C)c4c(=O)[nH]c(N(C)C)nc43)[C@H](O)[C@@H]2O)O[C@H]1n1cnc2c(N)ncnc21`: the remaining at 40 min in series [1] stood at 35%. Further, the figures for the half-life in series [2] and in series [3] were 10 h and 0.367 h, respectively.
For `CO[C@@H]1[C@H](O)[C@@H](COP(=O)(O)OP(=O)([O-])OP(=O)(O)OC[C@H]2O[C@@H](n3c[n+](C)c4c(=O)[nH]c(N(C)C)nc43)[C@H](O)[C@@H]2O)O[C@H]1n1cnc2c(N)ncnc21`, the remaining at 40 min in series [1] stood at 15%. Also, the half-life in series [2] is 10 h; in series [3], 0.217 h.
Regarding `CO[C@@H]1[C@H](O)[C@@H](COP(=O)(O)CP(=O)(O)OP(=O)([O-])OC[C@H]2O[C@@H](n3c[n+](C)c4c(=O)[nH]c(N(C)C)nc43)[C@H](O)[C@@H]2O)O[C@H]1n1cnc2c(N)ncnc21`, the remaining at 40 min in series [1] worked out at 52%. Also, the half-life in series [2] is 120 h; in series [3], 0.583 h.
